The subject of the assay is T1, IiOMT2.
T1 construct: N-terminal His6-SUMO tag kept (pE-SUMO), E. coli Rosetta (DE3), Ni-NTA
Put plainly: O-methyltransferase assay, UPLC, Michaelis-Menten fit. In kind it is biochemical, Isatis indigotica. The note with it: 480 μM SAM, Tris-HCl pH 9.0, 45 °C. From the text:
O-methyltransferase assay, UPLC, Michaelis-Menten fit on IiOMT2

Where two headings read alike, the source gives them in different places.

Regarding `O=c1cc(-c2ccc(O)c(O)c2)oc2cc(O)cc(O)c12` [compound 2, luteolin], the Km (read-out: Luteolin / IiOMT2) worked out at 77 ± 12.6 µM. For `O=c1cc(-c2ccc(O)c(O)c2)oc2cc(O)c([C@@H]3O[C@H](CO)[C@@H](O)[C@H](O)[C@H]3O)c(O)c12` [compound 1, isoorientin], the Km (read-out: Isoorientin / IiOMT2) was found to be 62.1 ± 16.1 µM.

For the origin of these results see publication PMC9437721, “Identification and characterization of two Isatis indigotica O-methyltransferases methylating C-glycosylflavonoids” (Horticulture Research, 2022).
